From ChEMBL document CHEMBL1800064, “Biaryl ethers as potent allosteric inhibitors of reverse transcriptase and its key mutant viruses: aryl substituted pyrazole as a surrogate for the pyrazolopyridine motif” (Bioorg Med Chem Lett, 2010) come the findings set out here.

For experiment [1], the system named is Human immunodeficiency virus 1. Briefly: Antiviral activity against HIV1 R8 harboring reverse transcriptase Y181C mutant infected in human MT4 cells assessed as inhibition of viral spread in presence of 10% fetal bovine serum. Format: functional. Particulars: Human immunodeficiency virus 1, R8, MT4; read-out: CIC95.
Experiment [2] deals with Human immunodeficiency virus 1. Briefly: Antiviral activity against HIV1 R8 harboring reverse transcriptase K103N mutant infected in human MT4 cells assessed as inhibition of viral spread in presence of 10% fetal bovine serum. Format: functional. Conditions: Human immunodeficiency virus 1, R8, MT4; read-out: CIC95.
The test system of experiment [3] is Human immunodeficiency virus 1. Briefly: Antiviral activity against HIV1 R8 harboring reverse transcriptase infected in human MT4 cells assessed as inhibition of viral spread in presence of 50% normal human serum. Format: functional. Particulars: Human immunodeficiency virus 1, R8, MT4; read-out: CIC95.
Experiment [4] has as its target T1, Human immunodeficiency virus type 1 reverse transcriptase (Human immunodeficiency virus 1, UniProt Q72547, Y181C). Briefly: Inhibition of HIV1 reverse transcriptase Y181C mutant by SPA assay.
Experiment [5] has as its system Human immunodeficiency virus 1. Briefly: Antiviral activity against HIV1 R8 harboring wild type reverse transcriptase infected in human MT4 cells assessed as inhibition of viral spread in presence of 10% fetal bovine serum. Format: functional. Conditions: Human immunodeficiency virus 1, R8, MT4; read-out: CIC95.
Experiment [6] concerns the target Human immunodeficiency virus type 1 reverse transcriptase (Human immunodeficiency virus 1, UniProt Q72547). Put plainly: Inhibition of wild type HIV1 reverse transcriptase by SPA assay.
Experiment [7] addresses Human immunodeficiency virus type 1 reverse transcriptase (Human immunodeficiency virus 1, UniProt Q72547, K103N). Briefly: Inhibition of HIV1 reverse transcriptase K103N mutant by SPA assay.
Experiment [8] concerns the target T1, Human immunodeficiency virus type 1 reverse transcriptase. Put plainly: Inhibition of HIV1 reverse transcriptase Y181C mutant by electrochemiluminescent assay.
Experiment [9] concerns Human immunodeficiency virus 1. Briefly: Antiviral activity against HIV1 R8 harboring reverse transcriptase K103N/Y181C double mutant infected in human MT4 cells assessed as concentration required to inhibit >95% viral spread in presence of 10% FBS. Particulars: Human immunodeficiency virus 1, R8, MT4; read-out: CIC95. Format: functional.

Molecules are shown by their SMILES.

In the case of `N#Cc1cc(Cl)cc(Oc2cc(OCc3cc(-c4ccco4)[nH]n3)ccc2Cl)c1`, the IC95 in experiment [1] is 0.833 µM; in [2], 0.922 µM; in experiment [3], 0.922 µM; in experiment [5], 0.097 µM. In addition, the values for the Ki in experiment [4], in [6] and in experiment [7] were 0.0015 µM, 0.0003 µM and 0.01 µM, respectively.

Consider `N#Cc1cc(Cl)cc(Oc2cc(OCc3cc[nH]n3)ccc2Cl)c1`, for which the IC95 is 8.3 µM in experiment [2], 8.3 µM in experiment [3] and 0.922 µM in experiment [5]. For the same compound, the inhibitory constant (Ki) in experiment [4] turned out to be 0.14 µM; in experiment [6], 0.039 µM; in experiment [7] it was 0.179 µM.

As for `N#Cc1cc(Cl)cc(Oc2cc(OCc3cc(-c4ccccc4)[nH]n3)ccc2Cl)c1`, the IC95 in [1] came out at 0.833 µM; in experiment [2], 0.924 µM; in [3] it was 0.924 µM; in experiment [5] it was 0.222 µM. Further, the values for the Ki in experiment [4], in experiment [6] and in experiment [7] were 0.0125 µM, 0.0009 µM and 0.0024 µM, respectively.

As for `N#Cc1cc(Cl)cc(Oc2cc(OCc3n[nH]cc3-c3ccccc3)ccc2Cl)c1`, the figures for the IC95 in experiment [3] and in experiment [5] were above 8.3 µM and 8.3 µM, respectively. The Ki in experiment [4] is above 3 µM; in experiment [6], 0.46 µM; in experiment [7], above 0.34 µM.

For the compound `N#Cc1cc(Cl)cc(Oc2cc(OCc3cc(-c4ccccc4)on3)ccc2Cl)c1`, the IC95 turned out to be 0.833 µM in experiment [1], 2.78 µM in experiment [2], 8.33 µM in [3] and 0.926 µM in [5]. Also, the results for the inhibition constant Ki in experiment [4], in experiment [6] and in experiment [7] were 0.0204 µM, 0.0026 µM and 0.0055 µM, respectively.

Consider `N#Cc1cc(Cl)cc(Oc2cc(OCc3cc(-c4ccccc4)no3)ccc2Cl)c1`, for which the results for the IC95 in [2], in [3] and in [5] were above 8.33 µM, above 8.3 µM and above 8.3 µM, respectively. The Ki was determined as 0.763 µM in experiment [4], 0.031 µM in [6] and 0.115 µM in [7].

As to `N#Cc1cc(Cl)cc(Oc2cc(OCc3cc(-c4cccs4)[nH]n3)ccc2Cl)c1`, the IC95 in [1] is 0.178 µM; in experiment [2] it was 0.922 µM; in experiment [3], 0.307 µM; in experiment [5] it was 0.168 µM. The Ki in [4] amounted to 0.0495 µM; in [6], 0.0016 µM; in [7] it was 0.0046 µM.

Take `Cn1cc(-c2cc(COc3ccc(Cl)c(Oc4cc(Cl)cc(C#N)c4)c3)n[nH]2)cn1`: the IC95 in experiment [1] worked out at 0.278 µM; in experiment [2], 0.102 µM; in experiment [3] it was 0.307 µM; in experiment [5] it was 0.032 µM. The Ki in experiment [6] amounted to 0.0007 µM; in experiment [8] it was 0.003 µM; in experiment [7] it was 0.0042 µM.

In the case of `N#Cc1cc(Cl)cc(Oc2cc(OCc3cc(-c4ccccn4)[nH]n3)ccc2Cl)c1`, the IC95 in experiment [1] was above 0.833 µM; in experiment [2], 0.307 µM; in experiment [3], 0.307 µM; in experiment [5], 0.097 µM. The Ki in [4] stood at 0.0089 µM; in [6], 0.0032 µM; in experiment [7] it was 0.0096 µM.

For the compound `N#Cc1cc(Cl)cc(Oc2cc(OCc3cc(-c4cccnc4)[nH]n3)ccc2Cl)c1`, the IC95 in experiment [1] amounted to 0.278 µM; in experiment [2] it was 0.307 µM; in experiment [3], 0.307 µM; in experiment [5] it was 0.032 µM. The inhibitory constant (Ki) in [4] was determined as 0.0067 µM; in [6], 0.0011 µM; in experiment [7] it was 0.0052 µM.

With `N#Cc1cc(Cl)cc(Oc2cc(OCc3cc(-c4cc[n+]([O-])cc4)[nH]n3)ccc2Cl)c1`, the IC95 in experiment [1] was 0.5 µM; in experiment [2], 0.307 µM; in [3] it was 0.307 µM; in [5], 0.044 µM. The inhibitory constant (Ki) in experiment [4] is 0.046 µM; in experiment [6], 0.0053 µM; in experiment [7], 0.021 µM.

Regarding `N#Cc1ccc(-c2cc(COc3ccc(Cl)c(Oc4cc(Cl)cc(C#N)c4)c3)n[nH]2)cc1`, the IC95 was determined as 0.307 µM in experiment [2], 0.922 µM in experiment [3] and 0.034 µM in experiment [5]. The Ki in experiment [6] worked out at 0.0007 µM; in [8], 0.012 µM; in experiment [7], 0.0036 µM.

As to `N#Cc1cc(Cl)cc(Oc2cc(OCc3n[nH]c(-c4ccccn4)c3Cl)ccc2Cl)c1`, the IC95 was found to be 2.77 µM in [2], 0.922 µM in [3] and 0.922 µM in experiment [5]. Also, the Ki came out at 0.0004 µM in experiment [6], 0.0006 µM in experiment [8] and 0.0005 µM in experiment [7].

Regarding `N#Cc1cc(Cl)cc(Oc2cc(OCc3n[nH]c(-c4ccncc4)c3Cl)ccc2Cl)c1`, the IC95 in [1] amounted to 0.278 µM; in experiment [2] it was 0.102 µM; in experiment [3] it was 0.307 µM; in experiment [5] it was 0.097 µM. For the same compound, the results for the Ki in experiment [6], in experiment [8] and in experiment [7] were 0.0005 µM, 0.0005 µM and 0.0007 µM, respectively.

As for `N#Cc1cc(Cl)cc(Oc2cc(OCc3n[nH]c(-c4ccc(-c5nnn[nH]5)cc4)c3Cl)ccc2Cl)c1`, the IC95 in experiment [2] is 8.33 µM; in [3], above 8.33 µM; in experiment [5], 2.78 µM. For the same compound, the Ki in experiment [6] was 0.0003 µM; in experiment [8], 0.0006 µM; in [7], 0.0007 µM.

On to `N#Cc1cc(Cl)cc(Oc2cc(OCc3cn(-c4ccccc4)nn3)ccc2Cl)c1`, for which the figures for the Ki in [6] and in experiment [7] were 0.068 µM and 0.946 µM, respectively.

With `N#Cc1cc(Cl)cc(Oc2cc(OCc3nc(-c4ccccc4)no3)ccc2Cl)c1`, the Ki in [6] was determined as 0.015 µM; in experiment [7], 0.056 µM.

`N#Cc1cc(Cl)cc(Oc2cc(OCc3nc(-c4ccccn4)no3)ccc2Cl)c1`: the IC95 in [3] and in experiment [5] was above 8.3 µM throughout. Moreover, the Ki is 0.029 µM in experiment [6] and 0.069 µM in experiment [7].

For the compound `COc1ccc(-c2noc(COc3ccc(Cl)c(Oc4cc(Cl)cc(C#N)c4)c3)n2)cc1`, the IC95 in [3] and in experiment [5] was above 8.3 µM each time. The Ki came out at 0.0021 µM in experiment [6] and 0.03 µM in [7].

Regarding `COc1ccc(-c2nnc(COc3ccc(Cl)c(Oc4cc(Cl)cc(C#N)c4)c3)o2)cc1`, the IC95 in experiment [3] and in experiment [5] was 0.926 µM throughout. For the same compound, the inhibition constant Ki turned out to be 0.0052 µM in [6] and 0.0093 µM in experiment [7].

`N#Cc1cc(Cl)cc(Oc2cc(OCc3nc(-c4ccc(Cl)cc4)no3)ccc2Cl)c1`: the IC95 in experiment [3] and in experiment [5] was above 8.3 µM in each case. The figures for the inhibition constant Ki in experiment [6] and in experiment [7] were 0.031 µM and 0.13 µM, respectively.

For the compound `N#Cc1cc(Cl)cc(Oc2cc(OCc3nnc(-c4ccc(Cl)cc4)o3)ccc2Cl)c1`, the results for the IC95 in experiment [3] and in experiment [5] were 0.83 µM and 2.78 µM, respectively. Besides, the inhibition constant (Ki) was 0.0049 µM in experiment [6] and 0.011 µM in experiment [7].

As for `N#Cc1cc(Cl)cc(Oc2cc(OCc3ncc(-c4ccc(Cl)cc4)o3)ccc2Cl)c1`, the IC95 was found to be 0.277 µM in [3] and 0.926 µM in experiment [5]. For the same compound, the Ki was determined as 0.0021 µM in [6] and 0.0044 µM in experiment [7].

As for `O=C1Nc2ccc(Cl)cc2[C@@](C#CC2CC2)(C(F)(F)F)O1` [EFAVIRENZ], the IC95 was 0.008 µM in [1]; 0.232 µM in experiment [2]; 0.038 µM in experiment [3]; 0.272 µM in [9]; 0.0043 µM in experiment [5].
